Source: the supplement of paper PMC10331698
± gives the standard deviation of the averaged measurements.

Assays:
Test in all cases: level (log10 ratio to DMSO vehicle control); higher = higher biomarker level / cell amount than vehicle control
Conditions in all cases: in DMSO
[1] = compound: O=C(O)C(F)(F)C(F)(F)OC(F)(F)F [Perfluoro-3-methoxypropanoic acid]
Experimental: (§1)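 BioMAP Diversity Plus panel of 12 human primary cell co-culture systems (3C, 4H, LPS, SAg, BT, BF4T, BE3C, CASM3C, HDF3CGF, KF3CT, MyoF, Mphg). Compounds were added 1 h before stimulation and left for 24 h (MyoF 48 h; BT 72 h for soluble read-outs or 6 d for IgG). Biomarkers were read by ELISA, cytotoxicity by SRB, PBMC viability and proliferation by Alamar Blue. Each well value was divided by the mean of 8 DMSO control wells on the same plate and log10 transformed; duplicate blinded samples were tested at 4 concentrations.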

[2] = compound: COC(=O)CCC(F)(F)C(F)(F)C(F)(F)C(F)(F)F [Methyl 2H,2H,3H,3H-perfluoroheptanoate]
Experimental: as §1

[3] = compound: C=CC(F)(F)C(F)(F)C(F)(F)C(F)(F)C(F)(F)C(F)(F)C(F)(F)C(F)(F)C=C [1,8-Divinylperfluorooctane]
Experimental: as §1

[4] = compound: FC(F)(F)C(F)(F)C(F)(F)C(F)(F)C(F)(F)C(F)(F)C(F)(F)C(F)(F)CCS [2-(Perfluorooctyl)ethanthiol]
Experimental: as §1

[5] = compound: C=CC(=O)OCC(F)(F)C(F)(F)C(F)(F)C(F)(F)C(F)(F)C(F)(F)C(F)(F)F [1H,1H-Perfluorooctyl acrylate]
Experimental: as §1

[6] = compound: OCC(F)(F)OC(F)(F)C(F)(F)OC(F)(F)CO [1H,1H,8H,8H-Perfluoro-3,6-dioxaoctane-1,8-diol]
Experimental: as §1

[7] = compound: O=S(=O)(O)C(F)(F)C(F)(F)C(F)(F)C(F)(F)C(F)(F)C(F)(F)F [Perfluorohexanesulfonic acid]
Experimental: as §1

Test System | level (log10) ([1]; 6700 nM) | level (log10) ([1]; 20000 nM) | level (log10) ([1]; 60000 nM) | level (log10) ([2]; 6700 nM) | level (log10) ([2]; 20000 nM) | level (log10) ([2]; 60000 nM) | level (log10) ([3]; 6700 nM) | level (log10) ([3]; 20000 nM) | level (log10) ([4]; 6700 nM) | level (log10) ([4]; 20000 nM) | level (log10) ([5]; 6700 nM) | level (log10) ([5]; 20000 nM) | level (log10) ([5]; 60000 nM) | level (log10) ([6]; 6700 nM) | level (log10) ([6]; 20000 nM) | level (log10) ([6]; 60000 nM) | level (log10) ([7]; 6700 nM) | level (log10) ([7]; 20000 nM) | level (log10) ([7]; 60000 nM)
LPS:CXCL8/IL-8 | 0.0285 ± 0.035 | 0.018 ± 0.017 | 0.027 ± 0.0014 | -0.0075 ± 0.023 | -0.016 ± 0.0071 | 0.022 ± 0.016 | -0.0055 ± 0.005 | 0.0145 ± 0.0078 | -0.0195 ± 0.035 | 0.0235 ± 0.053 | 0.004 ± 0.0042 | 0.0185 ± 0.0064 | 0.013 ± 0.016 | 0.002 ± 0.0071 | 0.0075 ± 0.015 | 0.0075 ± 0.039 | -0.0005 ± 0.0021 | 0.0025 ± 0.0078 | 0.0675 ± 0.047
3C:CXCL8/IL-8 | -0.017 ± 0.051 | -0.0255 ± 0.021 | 0.005 ± 0.037 | -0.021 ± 0.023 | -0.0045 ± 0.021 | 0.012 ± 0.03 | -0.023 ± 0.018 | 0.011 ± 0.034 | 0.002 ± 0.018 | 0.044 ± 0.028 | 0.0075 ± 0.013 | -0.008 ± 0.0042 | 0.016 ± 0.03 | 0.013 ± 0.014 | 0.014 ± 0.04 | 0.021 ± 0.081 | -0.004 ± 0.014 | 0.031 | 0.069 ± 0.024
BF4T:PAI-I | 0.0015 ± 0.0064 | 0.0105 ± 0.0092 | 0.015 ± 0.017 | 0.007 ± 0.025 | 0.0055 ± 0.012 | -0.007 ± 0.0028 | -0.01 ± 0.0057 | 0.0055 ± 0.0064 | -0.0175 ± 0.0064 | -0.0255 ± 0.005 | 0.008 ± 0.0014 | 0 ± 0.0014 | 0.0025 ± 0.013 | -0.005 ± 0.02 | -0.015 ± 0.011 | -0.001 ± 0.013 | 0.0005 ± 0.03 | -0.015 ± 0.017 | -0.018 ± 0.0028
BE3C:HLA-DR | -0.014 ± 0.0014 | 0.003 ± 0.023 | -0.0035 ± 0.033 | -0.016 | 0.004 ± 0.0028 | -0.0235 ± 0.03 | 0.021 ± 0.016 | 0.014 | -0.0075 ± 0.0035 | -0.0135 ± 0.0092 | -0.0055 ± 0.005 | -0.0025 ± 0.005 | 0.0055 ± 0.012 | -0.0065 ± 0.025 | -0.009 ± 0.021 | -0.008 ± 0.0042 | -0.014 ± 0.031 | -0.0285 ± 0.013 | -0.0585 ± 0.028
4H:CD106/VCAM-1 | 0.0005 ± 0.016 | -0.005 ± 0.0085 | 0.007 ± 0.0057 | -0.021 ± 0.0071 | 0.01 ± 0.035 | 0.011 ± 0.013 | -0.012 ± 0.021 | 0.0035 ± 0.00071 | -0.0055 ± 0.005 | -0.0025 ± 0.012 | 0.0165 ± 0.036 | 0.032 ± 0.023 | 0.0225 ± 0.059 | 0.0145 ± 0.012 | -0.0105 ± 0.0021 | -0.0025 ± 0.015 | -0.013 ± 0.0042 | -0.023 ± 0.0042 | -0.012 ± 0.014
BF4T:CXCL8/IL-8 | -0.004 ± 0.025 | -0.0225 ± 0.042 | 0.001 ± 0.068 | 0.018 ± 0.018 | 0.0065 ± 0.0078 | 0.013 ± 0.037 | 0.009 ± 0.03 | 0.0155 ± 0.013 | 0.0625 ± 0.037 | 0.0505 ± 0.05 | 0.0275 ± 0.0092 | 0.01 ± 0.0057 | 0.0465 ± 0.0092 | 0.0225 ± 0.029 | -0.0005 ± 0.029 | 0 ± 0.023 | 0.002 ± 0.0085 | 0.0075 ± 0.0078 | 0.0255 ± 0.018
LPS:CCL2/MCP-1 | -0.005 ± 0.0057 | 0.003 ± 0.0071 | 0.0055 ± 0.03 | -0.011 ± 0.013 | -0.013 ± 0.0071 | -0.0065 ± 0.00071 | 0.0065 ± 0.021 | 0.0145 ± 0.029 | 0.018 | 0.026 ± 0.013 | -0.003 ± 0.017 | -0.0045 ± 0.005 | 0.005 ± 0.0099 | -0.002 | -0.015 ± 0.0071 | 0.008 ± 0.0057 | 0.0045 ± 0.0064 | 0.0045 ± 0.0064 | 0.028 ± 0.024
SAg:Proliferation | -0.0075 ± 0.035 | -0.015 ± 0.033 | 0.0005 ± 0.026 | 0.0115 ± 0.029 | 0.001 ± 0.0014 | 0.0075 ± 0.0078 | 0.0155 ± 0.0064 | 0.0455 ± 0.013 | 0.056 ± 0.016 | 0.0225 ± 0.03 | 0.004 ± 0.0042 | -0.045 ± 0.047 | -0.128 ± 0.038 | -0.025 ± 0.013 | -0.0195 ± 0.023 | -0.0055 ± 0.015 | -0.0215 ± 0.016 | 0.0015 ± 0.0064 | 0.021 ± 0.024
BT:Secreted IgG | -0.0085 ± 0.0021 | 0.01 ± 0.018 | 0.0155 ± 0.0035 | 0.015 ± 0.017 | -0.002 ± 0.0071 | -0.025 ± 0.018 | 0.022 ± 0.0071 | 0.0255 ± 0.019 | 0.02 ± 0.0071 | 0.016 ± 0.0014 | -0.0085 ± 0.015 | -0.0455 ± 0.057 | -0.132 ± 0.016 | -0.0135 ± 0.06 | 0.0085 ± 0.04 | -0.054 ± 0.021 | -0.0295 ± 0.0064 | 0.0015 ± 0.0064 | 0.0085 ± 0.0035
BT:B cell Proliferation | -0.022 ± 0.023 | 0.0015 ± 0.022 | 0.0135 ± 0.005 | -0.022 ± 0.023 | -0.019 ± 0.047 | -0.001 ± 0.05 | 0.0035 ± 0.037 | 0.035 ± 0.0085 | -0.007 ± 0.0057 | 0.038 ± 0.0042 | -0.0405 ± 0.05 | -0.0195 ± 0.056 | -0.052 ± 0.048 | -0.011 ± 0.0071 | 0 ± 0.0014 | -0.0145 ± 0.0078 | -0.0075 ± 0.047 | 0.0015 ± 0.053 | 0.063 ± 0.024
BT:sIL-17F | -0.161 ± 0.067 | -0.033 ± 0.052 | -0.0115 ± 0.011 | 0.014 ± 0.12 | -0.0295 ± 0.052 | -0.024 ± 0.068 | 0.012 ± 0.037 | 0.051 ± 0.0057 | -0.068 ± 0.055 | 0.092 ± 0.062 | -0.0975 ± 0.16 | -0.324 ± 0.11 | -0.372 ± 0.063 | 0.045 | -0.0205 ± 0.023 | -0.137 ± 0.096 | 0.0235 ± 0.09 | 0.0375 ± 0.018 | -0.063
3C:Proliferation | -0.0295 ± 0.056 | -0.023 ± 0.03 | -0.0135 ± 0.037 | -0.035 ± 0.0028 | -0.029 ± 0.018 | 0.018 ± 0.03 | 0 ± 0.016 | 0 ± 0.013 | 0.0355 ± 0.029 | -0.016 ± 0.013 | -0.015 ± 0.017 | -0.0805 ± 0.032 | -0.214 ± 0.033 | -0.066 ± 0.088 | 0.037 ± 0.035 | -0.0475 ± 0.064 | -0.042 ± 0.034 | -0.0525 ± 0.054 | -0.0305 ± 0.022
4H:CCL26/Eotaxin-3 | -0.013 ± 0.013 | -0.0085 ± 0.019 | 0.021 ± 0.0099 | -0.0075 ± 0.0064 | 0.0175 ± 0.0078 | 0.0025 ± 0.005 | 0.013 ± 0.0085 | 0.0345 ± 0.013 | 0.008 ± 0.017 | -0.0145 ± 0.0064 | 0.002 ± 0.023 | -0.002 ± 0.0057 | -0.0005 ± 0.0021 | 0.0015 ± 0.0021 | 0.0015 ± 0.0092 | -0.0035 ± 0.00071 | -0.0105 ± 0.00071 | -0.001 ± 0.02 | -0.047 ± 0.018
LPS:sTNF-alpha | 0.036 ± 0.011 | 0.036 ± 0.045 | 0.06 ± 0.059 | 0.0245 ± 0.005 | -0.007 ± 0.011 | -0.025 ± 0.033 | 0.055 ± 0.016 | 0.035 ± 0.035 | 0.052 ± 0.013 | 0.098 ± 0.0071 | 0.0115 ± 0.00071 | 0.0285 ± 0.011 | 0.021 ± 0.013 | -0.0235 ± 0.025 | -0.0435 ± 0.032 | -0.0335 ± 0.022 | -0.007 ± 0.025 | -0.0195 ± 0.015 | -0.0695 ± 0.0092
BT:PBMC Cytotoxicity | -0.0195 ± 0.061 | -0.0215 ± 0.019 | -0.0005 ± 0.029 | 0.032 ± 0.014 | 0.0045 ± 0.0092 | 0.0045 ± 0.021 | 0.0285 ± 0.0035 | 0.019 ± 0.0042 | -0.0395 ± 0.012 | 0.02 ± 0.0028 | -0.032 ± 0.071 | -0.0405 ± 0.056 | -0.092 ± 0.068 | 0.003 ± 0.017 | -0.0035 ± 0.013 | -0.009 | 0.0015 ± 0.016 | 0.0325 ± 0.0035 | 0.061 ± 0.0057
